# Assay results published in patent publication US9353048B2, “Compound as KCNQ potassium channel agonist, preparation method therefor and use thereof” (SHANGHAI INSTITUTE OF MATERIA MEDICA, CHINESE ACADEMY OF …, priority 2011, dated 2016).
# Where “and” joins values, the source holds several entries; their conditions need not be identical. Equal entries are not always repeated. Structures can show the parent of a compound that is named as a salt. Marks after values point to notes of the source that are not given here.
# Tests used:
# [1] = test system: KCNQ channels; assay: Whole-cell voltage-clamp electrophysiological recording in CHO cells transfected with KCNQ channels; format: cell-based; settings: for I/I0: activation multiple, maximum induced current at −10 mV testing voltage after administration (10 μM) vs before, >1 activating, <1 inhibiting; for ΔV1/2: shift of V1/2 of current activation curve, negative sign = left-ward shift, CHO cells
# Protocol: The formulation of culture fluid for Chinese hamster […] (CHO) (Culture Collection of Chinese Academy of Sciences): 50/50 DMEM/F-12 (Cellgro, Mamassas, Va.), 10% fetal bovine serum (FBS) (Gibco, Australia) and 2 mM […] (Invitrogen). […] Lipofectamine2000™ agent (Invitrogen) was used for Transfection according to the protocol thereof. […] After cotransfection with GFP (green fluorescent protein), transfected cells could be determined under a fluorescence microscopy.
# Whole-cell voltage-clamp recording was performed by using Axopatch-200B amplifier (Molecular Devices, Sunnyvale, Calif.) at room temperature. Borosilicate glass capillary tubes (World Precision Instruments, Sarasota, Fla.) were drawn into electrodes. The electric resistance of the electrodes filled with an intracellular fluid is 3 to 5 MΩ. […] During the recording, an extracellular fluid was continuously perfused by using a BPS perfusion system (ALA Scientific Instruments, Westburg, N.Y.). The formulation of the extracellular fluid was as follows: 140 mM NaCl, 5 mM KCl, 2 mM CaCl2, 1.5 mM MgCl2, 10 mM HEPES and 10 mM glucose (the pH value of the extracellular fluid was adjusted to 7.4 with NaOH). […] Resistors were connected in series to compensate 60 to 80% of signal loss. At present, multivoltage scheme was generally adopted, wherein the clamp voltage was set at −100 mV. Current was induced in cells by a series of 2000 ms stimulating voltage (from −90 mV up to +50 mV, with interval of 10 mV).
# In the following table, V1/2 is the voltage at which 50% of cells were activated, ΔV1/2 is amount of a left-ward shift of V1/2, negative sign (−) represents a left-ward shift of the current activation curve and positive sign (+) represents a right-ward shift of the curve. I/I0 is the activation multiple, wherein, I0 is the maximum induced current produced under stimulation of −10 mV testing voltage, I is the maximum induced current produced under stimulation of −10 mV testing voltage after administration (10 μM), I/I0>1 represents activating activity, and I/I0<1 represents inhibiting activity. N is the number of tested cells. NT represents non-tested.
# [2] = test system: Convulsion Induced by Pentylenetetrazole (PTZ); assay: Convulsion induced by pentylenetetrazole (PTZ), compounds by gastric lavage, C57BL/6J mice; format: in vivo; settings: 30 mg/kg gastric lavage; for Latency period of clonus / Latency period of whole-body tonic seizures / Mortality rate / Incidence rate of convulsion: PTZ 80 mg/kg s.c. 1 h later; for Incidence rate of convulsion: observed 60 min; for anti-convulsive effect (in words): PTZ-induced convulsion
# Protocol: The compounds to be tested were administrated to animals by gastric lavage (30 mg/kg); one hour later, pentylenetetrazole was administrated by subcutaneous injection (PTZ 80 mg/kg); and response of animals were observed within a period of 60 min.
# [3] = Solubility in water (treatment of samples)
# [4] = in vivo; settings: mouse, 20 mg/kg
# Protocol: (§1) Two hours after administration, animal were fed uniformly. Specific arrangement was as following table.
# After administration by gastric lavage or intravenous injection, mice were sacrificed by cutting abdominal aorta at time points set as the above with 3 mice for each time point. 0.5 mL of whole blood was collected for each animal, placed into a heparinized test tube and subjected to centrifugation at 3000 rpm to separate plasma, which was then cryopreserved in a −20° C. refrigerator. After the animals were sacrificed, their whole brain was collected, washed with ice-cooled physiological saline to remove residual blood. Then the residual liquid was absorbed to dryness. The treated brain was labeled and cryopreserved in a −20° C. refrigerator.
# [5] = Distribution of K20.2HCl and K21.2HCl in mice's plasma and brain tissue; format: in vivo, KM mice; settings: for Kp: brain, read-out: concentration of prototype drug in brain tissue relative to plasma
# Source text: as §1
# Then the residual liquid was absorbed to dryness.
# [6] = test system: Animal Models Induced by PTZ (Pentylenetetrazole); assay: PTZ test, compounds by intraperitoneal injection, KM mice; format: in vivo; settings: for Incidence rate of convulsion: PTZ 100 mg/kg s.c. 30 min later, observation 1 h; for anti-convulsive effect compared with retigabine (in words): same dosage, PTZ and MES tests
# Protocol: Compounds to be tested were administrated by intraperitoneal injection (10 mg/kg, 5 mg/kg, 2.5 mg/kg, 0.1 ml/10 g).
# [7] = test system: Animal Models Induced by MES (Maximum Electroshock); assay: MES test, compounds by intraperitoneal injection, KM mice; format: in vivo; settings: 10 mg/kg i.p.
# Source text: (§2) One time of electrical stimulation was applied to animals through ear clip electrodes, and a convulsion characterized by a tonic hind limb extension was observed. One day before the test, animals were screened in the above procedure to record the values of MES.
# [8] = test system: Animal Models Induced by MES; assay: MES test, compounds orally administrated (gastric lavage), KM mice; format: in vivo; settings: for effect in MES test (in words): gastric lavage
# Protocol: as §2
# 1 hour later, MES was applied according to parameters set the last day, and response of animals were observed and recorded immediately.
# [9] = test system: Animal Models Induced by PTZ; assay: PTZ test, compounds orally administrated (gastric lavage), KM mice; settings: for effect in PTZ test (in words): gastric lavage
# Protocol: Response of animals were observed immediately and recorded within a period of 1 h.
# [10] = 30 mg/kg gastric lavage, MES 1 hour later
# [11] = K21.2HCl 5 mg/kg gastric lavage
structure (smiles),measurement,setting,value
COC(=O)Nc1ccc(NCc2ccc(F)cc2)cc1 [Compound K1],I/I0,[1],2.84 ± 0.08
same,ΔV1/2,[1],−8.1 ± 3.1 mV
same,Latency period of clonus,[2],250 ± 114 s
same,Latency period of whole-body tonic seizures,[2],1785 ± 408 s
same,Mortality rate,[2],3/10
same,Incidence rate of convulsion,[2],4/10
same,solubility in water (in words),[3],can not be easily dissolved in water
"C#CCN(Cc1ccc(F)cc1)c1ccc(NC(=O)OC)cc1 [Compound K9, methyl 4-(N-parafluorobenzyl-N-propargyl-imino)-aniline formate]",I/I0,[1],3.27 ± 0.10
same,ΔV1/2,[1],−24.21 ± 2.4 mV
same,Latency period of clonus,[2],351 ± 84.3 s
same,Latency period of whole-body tonic seizures,[2],1382 ± 339 s
same,Mortality rate,[2],4/10
same,Incidence rate of convulsion,[2],4/10
same,anti-convulsive effect (in words),[2],comparable anti-convulsive effect
same,Kp,"[4]; male, KM",1.9
same,bioavailability,"[4]; male, KM",26%
same,AUC(0-t),"[4]; male, KM, iv",7180 ng·h/mL
same,Kp,"[4]; male, KM, iv",1.5
same,clearance,"[4]; male, KM, iv",46.3 mL/min/kg
same,AUC(0-t),"[4]; male, KM, po",1860 ng·h/mL
same,Cmax,"[4]; male, KM, po",2200 ng/mL and 4420 ng/g
same,half-life,"[4]; male, KM, po",~72 min
same,area under the concentration-time curve (AUC0-t) in brain tissue,[4],3565 ng·h/g
same,area under the concentration-time curve (AUC0-t) of brain tissue,[4]; iv,10694 ng·h/g
same,solubility in water (in words),[3],can not be easily dissolved in water
C#CCN(Cc1ccc(F)c(C(F)(F)F)c1)c1ccc(F)c(NC(=O)OC)c1 [Compound K11],I/I0,[1],2.24 ± 0.36
same,ΔV1/2,[1],−15.7 ± 1.0 mV
same,anti-convulsive effect (in words),[2],comparable anti-convulsive effect
"C=CCN(Cc1ccc(F)cc1)c1ccc(NC(=O)OCC)c(N)c1 [Compound K20, ethyl 2-amino-4-(N-parafluorobenzyl-N-allyl-imino)-aniline formate]",I/I0,[1],1.75 ± 0.12
same,ΔV1/2,[1],−49.7 ± 3.4 mV
same,Kp,"[5]; male, KM, mouse, oral, 20 mg/kg gastric lavage",2.3
"C#CCN(Cc1ccc(F)cc1)c1ccc(NC(=O)OCC)c(N)c1 [Compound K21, ethyl 2-amino-4-(N-parafluorobenzyl-N-propargyl-imino)-aniline formate]",I/I0,[1],1.53 ± 0.15
same,ΔV1/2,[1],−47.9 ± 3.5 mV
same,Incidence of tonic fore limb extension,[6]; 2.5 mg/kg i.p.,2/10
same,Incidence of tonic hind limb extension,[6]; 2.5 mg/kg i.p.,0/10***
same,Latency period of clonus,[6]; 2.5 mg/kg i.p.,184 ± 42 s
same,Mortality rate,[6]; 2.5 mg/kg i.p.,1/10**
same,Incidence rate of convulsion,[6]; 2.5 mg/kg i.p.,9/10
same,Incidence of tonic fore limb extension,[6]; 5 mg/kg i.p.,3/10
same,Incidence of tonic hind limb extension,[6]; 5 mg/kg i.p.,0/10***
same,Latency period of clonus,[6]; 5 mg/kg i.p.,238 ± 54 s
same,Mortality rate,[6]; 5 mg/kg i.p.,1/10**
same,Incidence rate of convulsion,[6]; 5 mg/kg i.p.,10/10
same,Incidence of tonic hind limb extension,[6]; 10 mg/kg i.p.,0/12***
same,Mortality rate,[6]; 10 mg/kg i.p.,0/12***
same,Incidence rate of convulsion,[6]; 10 mg/kg i.p.,12/12
same,sedative effect,[6]; intraperitoneal injection,some sedative effect
same,anti-convulsive effect compared with retigabine (in words),[6]; intraperitoneal injection,slightly stronger than that of retigabine
same,grand mal seizure in MES test (in words),[7],completely avoided the grand mal seizure
same,Mortality rate,[7]; MES 30 min later,0
same,Incidence of convulsion,"[7]; MES 30 min later, tonic hind limb extension",2/10***
same,Incidence rate of convulsion,[8]; [10],2/13***
same,Protection rate of compounds,[8]; [10],84.6%***
same,effect in MES test (in words),[8],significantly inhibiting the incidence of the grand mal seizure
same,solubility in water (in words),[3],can not be easily dissolved in water
same,Incidence of tonic fore limb extension,[9]; 30 mg/kg gastric lavage,5/12
same,Incidence of tonic hind limb extension,[9]; 30 mg/kg gastric lavage,0/12**
same,Latency period of clonus,[9]; 30 mg/kg gastric lavage,148 ± 37 s
same,Latency period of fore limb extension,[9]; 30 mg/kg gastric lavage,1561 ± 690 s
same,Mortality rate,[9]; 30 mg/kg gastric lavage,3/12
same,Incidence rate of clonus,"[9]; 30 mg/kg gastric lavage, PTZ 100 mg/kg s.c. 1 h later, observation 1 h",12/12
same,effect in PTZ test (in words),[9],significantly inhibit tonic seizures
"C#CCN(Cc1ccc(F)cc1)c1ccc(NC(=O)OCC)c(N)c1 [Compound K21.2HCl, ethyl 2-amino-4-(N-parafluorobenzyl-N-propargyl-imino)-aniline formate dihydrochloride]",anti-convulsive effect compared with retigabine (in words),"[6]; intraperitoneal injection, formate dihydrochloride",superior anti-convulsive effect
same,effect in MES test (in words),[8]; formate dihydrochloride,comparable effect
same,exposure amount of metabolite retigabine in brain tissue relative to prototype drug,[5]; [11],4.6%
same,exposure amount of metabolite retigabine in plasma relative to prototype drug,[5]; [11],5.4%
same,Kp,"[5]; male, KM, mouse, oral, 5 mg/kg gastric lavage",2.4
same,Tmax,"[5]; male, KM, mouse, plasma or brain tissue, oral, K21.2HCl 5 mg/kg gastric lavage, read-out: time to reach the maximum concentrations (Tmax) of prototype drug in plasma or brain tissue",15 min
same,effect in PTZ test (in words),[9]; formate dihydrochloride,obviously inhibit the tonic seizures
"C=C(/C=C/CO)CN(Cc1ccc(F)cc1)c1ccc(NC(=O)OCC)c(NC(=O)OCC)c1 [Compound K32, ethyl 2-(ethoxycarbonyl-imino)-4-[N-parafluorobenzyl-N-1-(6-hydroxyl-2-alkenyl-3-hexylene)-imino]-aniline formate]",I/I0,[1],1.76 ± 0.09
same,ΔV1/2,[1],−6.0 ± 1.5 mV
C#CCCOC(=O)Nc1ccc(N(CC#C)Cc2ccc(F)cc2)cc1N [Compound K33],ΔV1/2,[1],−36.8 ± 3.3 mV
"C=CCN(Cc1ccc(F)cc1)c1ccc2[nH]c(=O)[nH]c2c1 [Compound K34, 5-(N-parafluorobenzyl-N-allyl-imino)-benzimidazole-2-one]",I/I0,[1],1.44 ± 0.16
CCOC(=O)Nc1ccc(N(CC2=CCCCC2)Cc2ccc(F)cc2)cc1NC(=O)OCC [Compound K38],I/I0,[1],0.16 ± 0.02
"C=C(/C=C/CN)CN(Cc1ccc(F)cc1)c1ccc(NC(=O)OCC)c(NC(=O)OCC)c1 [Compound K39, ethyl 2-(ethoxycarbonyl-imino)-4-[N-parafluorobenzyl-N-1-(6-amino-2-alkenyl-3-hexylene)-imino]-aniline formate]",I/I0,[1],1.03 ± 0.11
